# Assay results taken from US20080026996A1, “Selective Vpac2 Receptor Reptide Agonists” (ELI LILLY AND COMPANY, priority 2004, published 2008).
# Like-named read-outs stand apart in the source and are kept apart here. Where a SMILES comes first, the peptide text is derived from it. Where no end group is shown, it is not given here. [ ]: non-standard residue; d: D form. The star is where a group is joined. Hexanoyl = CCCCCC(=O)*; Aib = CC(C)(N)C(=O)O
# Columns and labels:
# [1] = Rat serum stability studies (remaining active peptide by DiscoveRx cAMP on CHO-VPAC2 cells); assay type: in vitro ADME
# Summary of the method: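 Rat serum, 18 h: +aprotinin aliquot at 4° C, no-aprotinin aliquot at 37° C. Then 30 min RT step, supernatant removed, 1 h shaking at 300 rpm. DiscoveRx cAMP kit on CHO-VPAC2; EC50 from cAMP data vs standards.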
# [2] = molecular target: T1, rat VPAC1 receptor (Rattus norvegicus, UniProt P30083); experiment: Competition binding on recombinant rat VPAC1 receptor expressed in CHO cells, 125I-VIP tracer; parameters: expressed in transfected cells; host or cells: CHO cells, crude membranes
# T1 sequence (P30083 31-459): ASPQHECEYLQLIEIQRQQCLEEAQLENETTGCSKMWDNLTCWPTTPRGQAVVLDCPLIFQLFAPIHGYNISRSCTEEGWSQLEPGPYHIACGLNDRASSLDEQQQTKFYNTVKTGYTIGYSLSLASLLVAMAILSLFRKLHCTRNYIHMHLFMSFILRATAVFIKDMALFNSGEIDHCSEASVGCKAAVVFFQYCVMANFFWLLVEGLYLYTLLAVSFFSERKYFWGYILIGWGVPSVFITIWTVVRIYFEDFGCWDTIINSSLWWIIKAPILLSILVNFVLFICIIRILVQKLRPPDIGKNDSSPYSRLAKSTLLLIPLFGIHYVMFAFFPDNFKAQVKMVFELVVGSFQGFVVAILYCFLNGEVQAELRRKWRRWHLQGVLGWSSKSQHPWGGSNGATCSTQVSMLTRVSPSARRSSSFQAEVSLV
# Method: (§4) The peptide samples are stored frozen and thawed prior to the assay. […] All peptide sample and reference compound dilutions are performed in PBS. Peptides solutions are kept in the cold room for four days. Stock solutions are stored at −80° C. New dilution curves are prepared every week.
# (§5) Each assay is done in duplicate and performed on two different membrane preparations.
# [3] = molecular target: T2, rat VPAC2 receptor (Rattus norvegicus, UniProt P35000); experiment: Competition binding on recombinant rat VPAC2 receptor expressed in CHO cells, 125I-RO 25-1553 tracer; parameters: expressed in transfected cells; host or cells: CHO cells, crude membranes; conditions: for VPAC1/VPAC2 ratio between the IC50 values (index of selectivity): rat receptors, binding
# T2 sequence (P35000 23-437): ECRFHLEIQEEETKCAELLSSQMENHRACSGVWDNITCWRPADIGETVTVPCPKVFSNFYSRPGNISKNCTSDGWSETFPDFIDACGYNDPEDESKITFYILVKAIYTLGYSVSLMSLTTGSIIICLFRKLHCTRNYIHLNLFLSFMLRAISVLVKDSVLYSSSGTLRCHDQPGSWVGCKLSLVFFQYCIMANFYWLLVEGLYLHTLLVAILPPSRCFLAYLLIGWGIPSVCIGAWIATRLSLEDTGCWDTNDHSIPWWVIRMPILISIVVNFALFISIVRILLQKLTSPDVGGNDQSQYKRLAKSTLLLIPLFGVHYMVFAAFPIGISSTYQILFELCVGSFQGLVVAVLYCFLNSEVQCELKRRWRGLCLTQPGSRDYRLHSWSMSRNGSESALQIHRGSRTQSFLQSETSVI
# Method: as §4, §5
# [4] = molecular target: T1, rat VPAC1 receptor; experiment: Adenylate cyclase activation on membrane preparations expressing rat VPAC1 receptor; assay type: biochemical; parameters: expressed in transfected cells; host or cells: CHO cells, crude membranes; conditions: for VPAC1 cAMP max: maximal increase in cyclic AMP production (over basal) per minute and per mg protein
# Method: (§1) All studies are performed on crude membranes prepared from three different cell cultures expressing the different recombinant receptors, using methodology that is known in the literature. Duplicate values are obtained for each assay.
# (§2) The selectivity of the VPAC2 receptor peptide agonists of the present invention are tested on the rat VPAC1 and VPAC2 receptors recombinantly expressed in CHO cells. The compound of the invention were evaluated in receptor binding & adenylate cyclase activation assays.
# (§3) Dose-effect curves of adenylate cyclase activation were generated using the VPAC2 receptor peptide agonists (10^−11 to 10^−6 M, two concentrations per log) of the present invention.
# Adenylate cyclase activity was determined by the procedure of Salomon et al. (1974), A highly sensitive adenylate cyclase assay. Analytical Biochemistry 58 (1974. Membrane proteins ([…]) are incubated in a total volume of […] containing 0.5 mM [^32P]-ATP, 10 µM GTP, 5 mM MgCl2, 0.5 mM EGTA, 1 mM cAMP, 1 mM theophylline, 10 mM phospho(enol)pyruvate, […] pyruvate kinase and 30 mM Tris-HCl at a final pH of 7.8. The reaction is initiated by membrane addition and is terminated after 15 min incubation at 37° C. by addition of 0.5 ml of 0.5% sodium dodecyl-sulfate solution containing 0.5 mM ATP, 0.5 mM cAMP and […] [^3H]-cAMP. cAMP was separated from ATP by two successive chromatographies on Dowex 50Wx8 and neutral alumina.
# [5] = molecular target: T2, rat VPAC2 receptor; experiment: Adenylate cyclase activation on membrane preparations expressing rat VPAC2 receptor; assay type: biochemical; parameters: expressed in transfected cells; host or cells: CHO cells, crude membranes; conditions: for VPAC2 cAMP max: maximal increase in cyclic AMP production (over basal) per minute and per mg protein; for VPAC1/VPAC2 ratio of EC50: rat receptors
# Method: as §1, §2, §3
# [6] = rat, in vivo, iv; for Exposure (10 μg/kg, Vdist in μg/(nM * kg)): 10 ug/kg
# Method: (§6) An IVGTT with glucose is given immediately after T=0 to 6 animals per condition. Samples are taken at 0, 2, 4, 6, and 10 minutes after injection.
# (§7) For cell handling, Plate 50,000 cells/well and keep in culture over night. Wash cell twice in PBS and add 50 μl/well stimulation medium consisting of PBS+1.2 MgCl2, 1.3 CaCl2, 2 glucose and 0.5 IBMX. Incubate 15 minutes and add 50 μl/well of the plasma samples (see layout below). Incubate 30 minutes, remove the supernatant and proceed as normal with the DiscoveRx assay. Prepare plates in duplicate. Protease and peptidase inhibitor are present in all plasma samples.
# [7] = in vivo; conditions: Wistar, rat, iv
# Method: as §6, §7
# [8] = molecular target: T2, rat VPAC2 receptor; experiment: DiscoveRx in vitro potency, CHO-PO cells transiently transfected with rat VPAC 2 receptor DNA; assay type: cell-based; parameters: expressed in transfected cells; host or cells: CHO-PO, transient
# Method: Also, the cells are washed twice. […] The stimuli are present for 30 minutes. Then, the assay buffer is gently removed.
# [9] = IC50 of tracer inhibition, 125I-VIP, with standard error, read-out: RAT VPAC1 IC50 (log M) (converted)
# [10] = IC50 of tracer inhibition, 125I-RO 25-1553, with standard error, read-out: RAT VPAC2 IC50 (log M) (converted)
# [11] = adenylate cyclase activation, rat VPAC1 membranes, with standard error, read-out: VPAC1 EC50 (log M) (converted)
# [12] = adenylate cyclase activation, rat VPAC2 membranes, with standard error, read-out: VPAC2 EC50 (log M) (converted)
Molecule,VPAC1/VPAC2 ratio between the IC50 values (index of selectivity) [3],VPAC1 cAMP max [4],VPAC2 cAMP max [5],VPAC1/VPAC2 ratio of EC50 ([5]; adenylate cyclase activation),Rat Serum Stability (estimated purity in % after 18 hours) [1] [%],"Exposure (10 μg/kg, Vdist in μg/(nM * kg)) [6] [µg/nM/kg]",AUC(0-t) ([7]; 10 ug/kg) [nM·h],Cmax ([7]; 10 ug/kg) [nM],half-life ([7]; 10 ug/kg) [min],EC50 [8] [nM],"IC50 [2, 9] [nM]","IC50 [3, 10] [nM]","EC50 [4, 11] [nM]","EC50 [5, 12] [nM]",other results
H-MHSDAVFTDNYTRLRKQVAAKKYLQSIKNKRYGGPSSGAPPPS [Agonist P104],977,195 ± 18,129 ± 19,184,,,,,,,,,,,"Rat Serum Stability (estimated purity in % after 18 hours) ([1]; 10 μM peptide in rat serum, 37° C., 18 hours, versus 4° C. aliquot with aprotinin): 1.01%; IC50 [2]: 1760 nM; IC50 [3]: 1.8 nM; EC50 [4]: 186 nM; EC50 [5]: 1.01 nM"
Hexanoyl-HSDAVFTDNYTRLR[Aib]QVAA[Aib]KYLQSIKNKRYGGPSSGAPPPS [Agonist P261],363,126,78.5,200,27.06,0.8,0.898,12.1,3.2,0.04,129,0.355,12.6,0.0631,
Hexanoyl-HSDAVFTDNYTRLRKQVAAKKYLQSIKNKRYGGPSSGAPPPS [Agonist P31],546,200 ± 13,134 ± 12,174,,10,0.308,4.37,12,,210,0.385,25.2,0.145,
Hexanoyl-HSDAVFTDNYTRLR[Aib]QVAAK[Aib]YLQSIKNKRYGGPSSGAPPPS [Agonist P264],,,,,19.22,5.1,0.06,0.96,1.3,0.1,,,,,Rat Serum Stability (Estimated purity in % after 72 hours) [1]: 0.9%
Hexanoyl-HSDAVFTDNYTRLLAKLALQKYLQSIKNKRYGGPSSGAPPPS [Agonist P119],47,207 ± 13,133 ± 18,32,,,,,,,29.2,0.618,2.9,0.0912,
CCCCCC(=O)N[C@@H](Cc1c[nH]cn1)C(=O)N[C@@H](CO)C(=O)N[C@@H](CC(=O)O)C(=O)N[C@@H](C)C(=O)N[C@H](C(=O)N[C@@H](Cc1ccccc1)C(=O)N[C@H](C(=O)N[C@@H](CC(=O)O)C(=O)N[C@@H](CC(N)=O)C(=O)N[C@@H](Cc1ccc(O)cc1)C(=O)N[C@H](C(=O)N[C@@H](CCCNC(=N)N)C(=O)N[C@@H](CC(C)C)C(=O)N[C@@H](CCCNC(=N)N)C(=O)NC(C)(C)C(=O)N[C@@H](CCC(N)=O)C(=O)N[C@@H](CC(C)C)C(=O)N[C@@H](C)C(=O)N[C@@H](C)C(=O)NC(C)(C)C(=O)N[C@@H](CCCCN)C(=O)N[C@@H](Cc1ccc(O)cc1)C(=O)N[C@@H](CC(C)C)C(=O)N[C@@H](CCC(N)=O)C(=O)N[C@@H](CO)C(=O)N[C@H](C(=O)N[C@@H](CCCCN)C(=O)N[C@@H](CC(N)=O)C(=O)N[C@@H](CCCCN)C(=O)NCC(=O)NCC(=O)N1CCC[C@H]1C(=O)N[C@@H](CO)C(=O)N[C@@H](CO)C(=O)NCC(=O)N[C@@H](C)C(=O)N1CCC[C@H]1C(=O)N1CCC[C@H]1C(=O)N1CCC[C@H]1C(=O)N[C@@H](CO)C(=O)O)[C@@H](C)CC)[C@@H](C)O)[C@@H](C)O)C(C)C [Agonist P292] (Hexanoyl-HSDAVFTDNYTRLR[Aib]QLAA[Aib]KYLQSIKNKGGPSSGAPPPS-OH; C-terminus assumed),269,124,79.1,100,33.43,1.9,0.688,5.37,5.5,0.07,204,0.759,11.5,0.115,"Exposure (0.5 μg/kg, Vdist in μg/(nM * kg)) ([6]; 0.5 ug/kg): 9.5 µg/nM/kg; AUC(0-t) ([7]; 0.5 ug/kg): 0.0167 nM·h; Cmax ([7]; 0.5 ug/kg): 0.12 nM; half-life ([7]; 0.5 ug/kg): 15 min"
